A word on the solubility: it is how much of the substance goes into solution per volume.

Drawing on the OPERA property sets (Mansouri et al. 2018), this text covers solubility for 50 compounds.

SMILES strings stand for the structures. Converted amounts (≈) assume the structure as drawn.

Conditions in one data set: not given
Turning to `CCOc1ccc(C(=O)OCCN(CC)CC)cc1`, the solubility was 1.93 mM (≈ 0.512 mg/mL).
As to `COc1coc(CSP(=O)(OC)OC)cc1=O`, the solubility amounted to 5350 mM (≈ 1500 mg/mL).
Still for that read-out and setting: then `CNC(=O)O/N=C1\[C@@H](Cl)[C@@H]2C[C@H](C#N)[C@H]1C2`, with 8.28 mM (≈ 2 mg/mL); and `Cc1cc(C)c(C)c(C)c1C`, with 0.105 mM (≈ 0.0155 mg/mL).

The same data set, now with this note: 20 °C.
With `CC(C)(S)[C@@H](N)C(=O)O`, the solubility is 744 mM (≈ 111 mg/mL).
The same measure, in the same setting: as for `CCSCc1ccccc1OC(=O)NC`, the figure is 8.08 mM (≈ 1.82 mg/mL).
On the same count and under the same terms, then `O=C1C=C2CC3(O)COc4c(ccc(O)c4O)C3=C2C=C1O` (stereo not given), with 2 mM (≈ 0.6 mg/mL); and `FC(F)(F)c1cccc(C(c2ccccc2)(c2ccccc2)n2cncn2)c1`, with 3.95e-06 mM (≈ 1.5e-06 mg/mL); and `O=C1NC(=O)C2C3C(C(O)(c4ccccc4)c4ccccn4)=CC(C3=C(c3ccccc3)c3ccccn3)C12` (stereo not given), with 0.117 mM (≈ 0.06 mg/mL).
As for `CCNc1nc(NC(C)CC)nc(OC)n1` (stereo not given), the solubility worked out at 2.71 mM (≈ 0.61 mg/mL). This solubility is about 23-fold higher than that of the compound before.
The same measure, in the same setting: as for `COC(=O)C(C)N(C(=O)c1ccco1)c1c(C)cccc1C` (stereo not given), the figure is 0.763 mM (≈ 0.23 mg/mL); as for `CCOC(=O)CC`, 188 mM (≈ 19.2 mg/mL).
The same measure, in the same setting: then `N#CCC(N)=O`, with 1550 mM (≈ 130 mg/mL); and `CCCCCCCC(=O)OC`, with 0.407 mM (≈ 0.0644 mg/mL).
`CC(=O)C=C(C)C` registered a solubility of 294 mM (≈ 28.9 mg/mL).
On to `Oc1cc(O)ncn1`, for which the solubility came to 22.3 mM (≈ 2.5 mg/mL).

Staying with this data set, now noted: 22 °C.
`CCCC(C)C(=O)Nc1ccc(C)c(Cl)c1` (stereo not given) showed a solubility of 0.0355 mM (≈ 0.0085 mg/mL).
The same measure, in the same setting: as for `CCSC(=O)N(CC(C)C)CC(C)C`, the figure is 0.207 mM (≈ 0.045 mg/mL).

The same data set, now with this note: 23 °C.
In turn, `Nc1ccc(C(=O)O)c(O)c1` showed a solubility of 11 mM (≈ 1.69 mg/mL).
Same read-out and setting: as for `Clc1ccccc1-c1cc(Cl)c(Cl)c(Cl)c1Cl`, the figure is 5.17e-05 mM (≈ 1.69e-05 mg/mL); as for `C[C@]12CC[C@@H](O)C[C@@H]1CC[C@@H]1[C@@H]2CC[C@]2(C)C(=O)CC[C@@H]12`, 0.0461 mM (≈ 0.0134 mg/mL).

Still in this data set, the particulars now being: 24 °C.
With `CN(C)CCC=C1c2ccccc2CCc2ccccc21`, the solubility came out at 0.035 mM (≈ 0.00971 mg/mL). This counts as double-digit micromolar.
Same read-out and setting: then `CN1CCCC(CN2c3ccccc3Sc3ccccc32)C1` (stereo not given), with 0.018 mM (≈ 0.00559 mg/mL).

The data set is the same for the next values; noted with them: 25 °C.
`COc1ccc2c(c1)N(C[C@H](C)CN(C)C)c1ccccc1S2` returned a solubility of 0.0609 mM (≈ 0.02 mg/mL).
As to `COc1ccc2c(c1)c(CC(=O)O)c(C)n2C(=O)/C=C/c1ccccc1`, the solubility is 0.00286 mM (≈ 0.001 mg/mL).
On the same count and under the same terms, then `CCCOC(C)C`, with 46 mM (≈ 4.7 mg/mL); and `CCOC(=O)c1c[nH]c(=S)[nH]c1=O`, with 7.97 mM (≈ 1.6 mg/mL); and `FC1(F)C(F)(F)C(F)(F)C1(F)F`, with 0.165 mM (≈ 0.033 mg/mL).
`Clc1cc(Cl)c(Cl)c(Cl)c1` yielded a solubility of 0.0236 mM (≈ 0.0051 mg/mL).
As to `CC(C)(C)c1ccccc1`, the solubility stood at 0.22 mM (≈ 0.0295 mg/mL). This solubility lies about 9.3-fold higher than the previous one.
Same read-out and setting: as for `CC#CCCCC`, the figure is 1.7 mM (≈ 0.163 mg/mL); as for `O=C(O)c1ccc(F)cc1`, 8.56 mM (≈ 1.2 mg/mL).
`Cc1ccccc1S(N)(=O)=O` came in with a solubility of 9.46 mM (≈ 1.62 mg/mL).
The same measure, in the same setting: then `C=C(C)C`, with 4.69 mM (≈ 0.263 mg/mL); and `CCCCCCCCCc1ccc(O)cc1`, with 0.0318 mM (≈ 0.007 mg/mL); and `CCC(O)CC`, with 584 mM (≈ 51.5 mg/mL).
Still for that read-out and setting: as for `ClCC1CO1` (stereo not given), the figure is 712 mM (≈ 65.9 mg/mL); as for `CC(C)(C)C(=O)OCC(=O)[C@@]1(O)CC[C@H]2[C@@H]3CCC4=CC(=O)C=C[C@]4(C)[C@H]3[C@@H](O)C[C@@]21C`, 0.0261 mM (≈ 0.0116 mg/mL); as for `C=CCc1ccc(O)c(OC)c1`, 27.4 mM (≈ 4.5 mg/mL).
The same measure, in the same setting: then `Clc1cccc(-c2cc(Cl)ccc2Cl)c1`, with 0.000982 mM (≈ 0.000253 mg/mL).
`C=C(C)c1ccccc1` gave a solubility of 0.982 mM (≈ 0.116 mg/mL).
Still for that read-out and setting: as for `Cc1c(N)c(=O)n(-c2ccccc2)n1C`, the figure is 3580 mM (≈ 728 mg/mL); as for `CCSCCSP(=S)(OC)OC`, 0.812 mM (≈ 0.2 mg/mL).
In turn, `O=C1CSC(=S)N1` registered a solubility of 16.9 mM (≈ 2.25 mg/mL).
The same measure, in the same setting: then `O=C(O)c1cc(=O)cc(C(=O)O)o1`, with 77.7 mM (≈ 14.3 mg/mL); and `ClCCCBr`, with 14.2 mM (≈ 2.24 mg/mL).

The same data set, now with this note: 30 °C.
Compound `CN(C)CCN(Cc1cccs1)c1ccccn1` came in with a solubility of 2.3 mM (≈ 0.601 mg/mL).
Still for that read-out and setting: then `CCCCCCCCCCC(=O)O`, with 0.28 mM (≈ 0.0522 mg/mL); and `CC(=O)Nc1nnc(S(N)(=O)=O)s1`, with 4.41 mM (≈ 0.98 mg/mL); and `COC(=O)[C@H]1[C@H]2C[C@@H]3c4[nH]c5cc(OC)ccc5c4CCN3C[C@H]2C[C@@H](OC(=O)c2cc(OC)c(OC)c(OC)c2)[C@@H]1OC`, with 0.12 mM (≈ 0.073 mg/mL).
